Legend:
[1] = Solubility constant in aqueous solution (Kps)
Staphylococcus aureus = conditions: Cu^+ ions; cited from earlier work
Subtilis bacteria = conditions: Cu^+ ions; cited from earlier work

Which “Group (classification according to Kps value)” value (“Group” for short) [1] does the source give for `[OH][Cu][OH]` [Copper (II)Hydroxide] here?
The value was “C (Group C: salts with a Kps within a range that goes from a value greater than or equal to 1*10^−20 until a value equal to or less than 9*10^−16.)”.

What does the source list for `[Cu]` [copper]?
MIC value for copper (Staphylococcus aureus): 0.35 µM; MIC value for copper (Subtilis bacteria): 0.04 µM

Which “Group” value [1] does the source give for Copper (I)Hydroxide here?
The value was “B (Group B: salts with a Kps within a range that goes from a value greater than 9*10^−16 until a value equal to or less than 9*10^−11.)”.

Which “Group” value [1] does the source give for Copper(I) Oxide here?
The value was “B (Group B: salts with a Kps within a range that goes from a value greater than 9*10^−16 until a value equal to or less than 9*10^−11.)”.

With Copper(I)Phthalocyanine as the compound, how does the “Group” value [1] read?
The value was “B (Group B: salts with a Kps within a range that goes from a value greater than 9*10^−16 until a value equal to or less than 9*10^−11.)”.
